Among the data in patent publication US8163740B2, “6-substituted benzoxazines” (Hoffmann-La Roche Inc., priority 2008, dated 2012) are Ki values, retold here.

One may read the Ki as the equilibrium dissociation constant of an inhibitor or competing ligand from its target.

For the experiment, the target named is recombinant human 5-HT5A receptor (Homo sapiens, UniProt P47898). Nature of the experiment: [3H]LSD radioligand binding assay. The note with it: [3H]LSD (approximately 1 nM); membranes from HEK-EBNA cells transiently expressing 5-HT5A; Ki by Cheng-Prussoff equation; read-out: Ki. Put shortly: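 Membranes from HEK-EBNA cells transiently expressing the receptor, with ~1 nM [3H]LSD in 50 mM Tris, 1 mM EGTA, 10 mM MgCl2, 10 μM pargyline, pH 7.4, SPA bead format. Incubated 120 min RT; nonspecific binding defined with 2 μM methiothepin. 10 concentrations in duplicate; IC50 converted to Ki via Cheng-Prusoff.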
Chain of recombinant human 5-HT5A receptor (P47898 whole entry): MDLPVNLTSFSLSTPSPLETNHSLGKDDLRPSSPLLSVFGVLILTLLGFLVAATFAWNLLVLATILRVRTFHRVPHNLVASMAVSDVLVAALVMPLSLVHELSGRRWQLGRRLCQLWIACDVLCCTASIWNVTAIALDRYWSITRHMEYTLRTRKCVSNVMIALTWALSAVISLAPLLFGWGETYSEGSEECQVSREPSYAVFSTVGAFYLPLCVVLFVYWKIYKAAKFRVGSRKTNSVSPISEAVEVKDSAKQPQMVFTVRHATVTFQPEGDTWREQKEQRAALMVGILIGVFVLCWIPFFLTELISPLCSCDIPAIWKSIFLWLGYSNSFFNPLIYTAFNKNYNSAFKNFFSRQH
`O=C(CN1CCS(=O)(=O)CC1)Nc1ccc2c(c1)COC(N[C@@H]1CCc3ccccc31)=N2` [Example 66, 2-(1,1-Dioxo-1λ^6-thiomorpholin-4-yl)-N-[2-((R)-indan-1-ylamino)-4H-benzo[d][1,3]oxazin-6-yl]-acetamide]: the Ki was found to be 16 nM. Turning to `O=C(Cn1ccnc1)Nc1ccc2c(c1)COC(N[C@@H]1CCc3ccccc31)=N2` [Example 67, 2-Imidazol-1-yl-N-[2-((R)-indan-1-ylamino)-4H-benzo[d][1,3]oxazin-6-yl]-acetamide], the Ki turned out to be 7.42 nM.

For `CC(C)(O)CNCC(=O)Nc1ccc2c(c1)COC(N[C@@H]1CCc3ccccc31)=N2` [Example 68, 2-(2-Hydroxy-2-methyl-propylamino)-N-[2-((R)-indan-1-ylamino)-4H-benzo[d][1,3]oxazin-6-yl]-acetamide], the Ki came to 9.23 nM.

`COCCNCC(=O)Nc1ccc2c(c1)COC(N[C@@H]1CCc3ccccc31)=N2` [Example 69, N-[2-((R)-Indan-1-ylamino)-4H-benzo[d][1,3]oxazin-6-yl]-2-(2-methoxy-ethylamino)-acetamide]: the Ki worked out at 8.34 nM. On to `O=C(CN1CCN(CC(F)(F)F)CC1)Nc1ccc2c(c1)COC(N[C@@H]1CCc3ccccc31)=N2` [Example 70, N-[2-((R)-Indan-1-ylamino)-4H-benzo[d][1,3]oxazin-6-yl]-2-[4-(2,2,2-trifluoro-ethyl)-piperazin-1-yl]-acetamide], for which the Ki was 33 nM.

Consider `CN1CCN(S(=O)(=O)Nc2ccc3c(c2)COC(N[C@@H]2CCCc4ccccc42)=N3)CC1` [Example 71, 4-Methyl-piperazine-1-sulfonic acid {2-[(R)-(1,2,3,4-tetrahydro-naphthalen-1-yl)amino]-4H-benzo[d][1,3]oxazin-6-yl}-amide], for which the Ki was determined as 138 nM.

Regarding `CN1CCN(S(=O)(=O)Nc2ccc3c(c2)COC(N[C@@H]2CCc4ccccc42)=N3)CC1` [Example 72, 4-Methyl-piperazine-1-sulfonic acid [2-((R)-indan-1-ylamino)-4H-benzo[d][1,3]oxazin-6-yl]-amide], the Ki came out at 28.6 nM. In the case of `CC(C)N1C2CCC1CC(NCC(=O)Nc1ccc3c(c1)COC(N[C@@H]1CCCc4ccccc41)=N3)C2` (stereo partly drawn) [Example 73, 2-((exo)-8-Isopropyl-8-aza-bicyclo[3.2.1]oct-3-ylamino)-N-{2-[(R)-(1,2,3,4-tetrahydro-naphthalen-1-yl)amino]-4H-benzo[d][1,3]oxazin-6-yl}-acetamide] it was 61.3 nM; in that of `CC(C)N1C2CCC1CC(NCC(=O)Nc1ccc3c(c1)COC(N[C@@H]1CCc4ccccc41)=N3)C2` (stereo partly drawn) [Example 76, N-[2-((R)-Indan-1-ylamino)-4H-benzo[d][1,3]oxazin-6-yl]-2-((exo)-8-isopropyl-8-aza-bicyclo[3.2.1]oct-3-ylamino)-acetamide], 13.5 nM; in that of `Cc1ccc(CNC2=Nc3ccc(N)cc3CO2)o1` [Example 77, N^2-(5-Methyl-furan-2-ylmethyl)-4H-benzo[d][1,3]oxazine-2,6-diamine], 13.5 nM. In the case of `CS(=O)(=O)Nc1ccc2c(c1)COC(N[C@@H]1CCc3ccccc31)=N2` [Example 78, N-[2-((R)-Indan-1-ylamino)-4H-benzo[d][1,3]oxazin-6-yl]-methanesulfonamide], the inhibitory constant (Ki) was found to be 4.44 nM.

On to `O=S(=O)(Nc1ccc2c(c1)COC(N[C@@H]1CCc3ccccc31)=N2)C1CC1` [Example 79, Cyclopropanesulfonic acid [2-((R)-indan-1-ylamino)-4H-benzo[d][1,3]oxazin-6-yl]-amide], for which the Ki was 1.81 nM. `Cc1ccc(CNC2=Nc3ccc(NC(=O)C4CC4)cc3CO2)o1` [Example 82, Cyclopropanecarboxylic acid {2-[(5-methyl-furan-2-ylmethyl)-amino]-4H-benzo[d][1,3]oxazin-6-yl}-amide]: the inhibitory constant (Ki) was determined as 11.7 nM. In the case of `O=S(=O)(Nc1ccc2c(c1)COC(N[C@@H]1CCc3ccccc31)=N2)c1ccccc1` [Example 83, N-[2-((R)-Indan-1-ylamino)-4H-benzo[d][1,3]oxazin-6-yl]-benzenesulfonamide] it was 3.69 nM; in that of `Cc1ccc(CNC2=Nc3ccc(NC(=O)CN4CCN(C)CC4)cc3CO2)o1` [Example 84, N-{2-[(5-Methyl-furan-2-ylmethyl)-amino]-4H-benzo[d][1,3]oxazin-6-yl}-2-(4-methyl-piperazin-1-yl)-acetamide], 26.8 nM; in that of `Cc1ccc(CNC2=Nc3ccc(NC(=O)CN4CCOCC4)cc3CO2)o1` [Example 85, N-{2-[(5-Methyl-furan-2-ylmethyl)-amino]-4H-benzo[d][1,3]oxazin-6-yl}-2-morpholin-4-yl-acetamide], 251 nM. In the case of `Nc1ccc2c(c1)COC(NCCOc1ccccc1)=N2` [Example 87, N^2-(2-Phenoxy-ethyl)-4H-benzo[d][1,3]oxazine-2,6-diamine] it was 3.6 nM. With `c1cncc(CNc2ccc3c(c2)COC(N[C@@H]2CCc4ccccc42)=N3)c1` [Example 88, N^2—(R)-Indan-1-yl-N^6-pyridin-3-ylmethyl-4H-benzo[d][1,3]oxazine-2,6-diamine] the figure was 1.68 nM; with `c1ccc2c(c1)CC[C@H]2NC1=Nc2ccc(NCc3nccs3)cc2CO1` [Example 89, N^2—(R)-Indan-1-yl-N^6-thiazol-2-ylmethyl-4H-benzo[d][1,3]oxazine-2,6-diamine], 1.18 nM; with `Nc1ccc2c(c1)COC(NC1CCCCCC1)=N2` [Example 92, N^2-Cycloheptyl-4H-benzo[d][1,3]oxazine-2,6-diamine], 16.7 nM.

In the case of `CN1CCN(CC(=O)Nc2ccc3c(c2)COC(NC2CCCCCC2)=N3)CC1` [Example 93, N-(2-Cycloheptylamino-4H-benzo[d][1,3]oxazin-6-yl)-2-(4-methyl-piperazin-1-yl)-acetamide], the inhibition constant (Ki) was 10.8 nM. With `c1ccc(CNc2ccc3c(c2)COC(NC2CCCCCC2)=N3)cc1` [Example 94, N^6-Benzyl-N^2-cycloheptyl-4H-benzo[d][1,3]oxazine-2,6-diamine] the figure was 63.5 nM; with `O=C(Nc1ccc2c(c1)COC(NC1CCCCCC1)=N2)C1CC1` [Example 95, Cyclopropanecarboxylic acid (2-cycloheptylamino-4H-benzo[d][1,3]oxazin-6-yl)-amide], 5.53 nM. Regarding `O=C(Nc1ccc2c(c1)COC(NCCOc1ccccc1)=N2)C1CC1` [Example 96, Cyclopropanecarboxylic acid [2-(2-phenoxy-ethylamino)-4H-benzo[d][1,3]oxazin-6-yl]-amide], the Ki was found to be 3.3 nM. In the case of `O=S(=O)(Nc1ccc2c(c1)COC(NC1CCCCCC1)=N2)C1CC1` [Example 97, Cyclopropanesulfonic acid (2-cycloheptylamino-4H-benzo[d][1,3]oxazin-6-yl)-amide], the inhibition constant (Ki) is 38.6 nM. With `c1csc(CNc2ccc3c(c2)COC(NC2CCCCCC2)=N3)n1` [Example 98, N^2-Cycloheptyl-N^6-thiazol-2-ylmethyl-4H-benzo[d][1,3]oxazine-2,6-diamine] the figure was 19.3 nM; with `CN(C)S(=O)(=O)Nc1ccc2c(c1)COC(NC1CCCCCC1)=N2` [Example 99, N,N-(Dimethyl)-N′-{2-cycloheptylamino-4H-benzo[d][1,3]oxazin-6-yl-}-sulfamide], 47.6 nM; with `O=S(=O)(Nc1ccc2c(c1)COC(NC1CCCCCC1)=N2)c1ccccc1` [Example 100, N-(2-Cycloheptylamino-4H-benzo[d][1,3]oxazin-6-yl)-benzenesulfonamide], 74.7 nM.
